For one assay, the system named is B16 melanoma tumors. Description: Multivalent ligands modulate B16 melanoma tumor growth in mice. The assay is classed as in vivo. To be noted: C57BL or CBF1 mice; S.C. injection remote from tumor, 20-30 mg/kg body weight/day for two weeks, started one week after tumor inoculation. How it is done: B16 melanoma cells were injected into 7-8 week old female C57BL mice or CBF1 mice, S.C., 2×10^5 cells per mouse, in 0.1 ml volume. One week after the tumor innoculation, the treatment was started by S.C. injection at sites remote from the tumor of the indicated multivalent ligand at a dose 20-30 mg/kg body weight/day for a period of two weeks. Tumors were measured with a dial-caliper and volumes were determined using the formula: (width)^2×length×0.52. Each group (experimental or control) contained 5-6 mice. FIGS. 6-9 depict changes in mean tumor-volume over time.

The test system of assay [1] is bovine aortic endothelial cells (A19 cells). Description: Proliferation of bovine aortic endothelial cells in vitro (methylene blue staining, O.D. 630 nm). To be noted: increasing concentrations (μg/ml), 72-80 hours incubation, medium with 1 ng/ml basic fibroblast growth factor; relative to untreated cells. It is filed as cell-based. How it is done:
The experiments were performed using 96 well, flat bottom, tissue culture microtiter plates. Culture medium was prepared from DMEM, penicillin (100 U/ml), streptomycin (100 μg/ml), glutamine (2 mM), 10% endotoxin free bovine calf serum (Hyclone) and 1 ng/ml of basic fibroblast growth factor (any commericial source).
Bovine aortic endothelial cells (referred to herein as "A19 cells") were obtained by procedures disclosed in Gospodorowicz et al., Proc. Natl. Acad. Sci. USA 73:4120 (1976), the entire teachings of which are incorporated herein by reference. An A19 cell suspension at 25×10^3 cells/ml was prepared in the above described culture medium and distributed 0.160 ml/well (about 4000 endothelial cells/well).
Multivalent ligand peptides Tip-18.40 and Tip-19.40 stock solutions was prepared by diluting a 10 mM solution of the HJ peptide in 100% DMSO with phosphate buffered saline (PBS)containing 0.1% BSA. The concentration of HJ peptide in each stock solution was adjusted to nine times the desired concentration of the HJ peptide in the assay mixture. 0.020 ml of each HJ peptide stock solution was added to the corresponding wells about 2 hours after BCE plating, with six replicates for each concentration. […]
The wells were washed one time with borate buffer (0.1 M, pH 8.5). […] After extracting overnight, the O.D. was read at 630 nm to determine the relative number of cells per well. […]

No end group written: not given here.

As to “Tip-15.40: four-branch pennant polylysine trimer; four TSP-1/endostatin hybrid peptides of SEQ ID NO.: 4 attached by covalent bond (Ac-AYRWRLSHRPKDLYSIVRRADG; also: four copies on branched polylysine core)”, in the assay on B16 melanoma tumors, the “effect on B16 melanoma tumor growth (mean tumor volume over time versus vehicle control)” value was “weak, but statistically significant inhibition”.
For “Tip-14.40: four-branch pennant polylysine trimer; four TSP-1/endostatin hybrid peptides of SEQ ID NO.: 3 attached by covalent bond (Ac-TFRAFLSSRLQTGFIRVVMYEG; also: four copies on branched polylysine core)”, the “effect on B16 melanoma tumor growth (mean tumor volume over time versus vehicle control)” value in the assay on B16 melanoma tumors was “weak, but statistically significant inhibition”.
For the substance “Tip-18.40: four-branch pennant polylysine trimer; four hybrid peptides of SEQ ID NO.: 11 attached via -Gly-Gly- linker (Ac-RWRLSHRPKDLYSIVRRADR; not fully specified; printed as Ac-RWRLSHRPKDLYSIVRRADR; also: four copies on polylysine core via Gly-Gly linker)”, the “effect on B16 melanoma tumor growth (mean tumor volume over time versus vehicle control)” value in the assay on B16 melanoma tumors is recorded as “suppressed tumor growth”. In assay [1], the “effect on proliferation of bovine aortic endothelial cells in vitro” value is “inhibit the proliferation”.
On to “Tip-16.40: four-branch pennant polylysine trimer; four hybrid peptides of SEQ ID NO.: 10 attached via -Gly-Gly- linker (Ac-AYRWRLSHRPKDLYSIVRRADR; not fully specified; printed as Ac-AYRWRLSHRPKDLYSIVRRADR; also: four copies on polylysine core via Gly-Gly linker)”, for which, in the assay with B16 melanoma tumors, the “effect on B16 melanoma tumor growth (mean tumor volume over time versus vehicle control)” value is given as “suppressed tumor growth”.
For the substance “Tip-19.40: four-branch pennant polylysine trimer; four hybrid peptides of SEQ ID NO.: 12 attached via -Gly-Gly- linker (Ac-KDFTAYRWRLSHRPKDLYSIVRRADR; not fully specified; printed as Ac-KDFTAYRWRLSHRPKDLYSIVRRADR; also: four copies on polylysine core via Gly-Gly linker)”, the “effect on B16 melanoma tumor growth (mean tumor volume over time versus vehicle control)” value in the assay with B16 melanoma tumors is given as “suppressed tumor growth”. Besides, the “effect on proliferation of bovine aortic endothelial cells in vitro” value in assay [1] is recorded as “inhibit the proliferation”.
“Tip-17.40: four-branch pennant polylysine trimer; four hybrid peptides of SEQ ID NO.: 9 attached via -Gly-Gly- linker (Ac-TAYRWRLSHRPKDLYSIVRRADR; not fully specified; printed as Ac-TAYRWRLSHRPKDLYSIVRRADR; also: four copies on polylysine core via Gly-Gly linker)”: the “effect on B16 melanoma tumor growth (mean tumor volume over time versus vehicle control)” value with B16 melanoma tumors is recorded as “promoted tumor growth”.
Still for that read-out and setting: for “Tip-13.40: four-branch pennant polylysine trimer; four peptides of SEQ ID NO.: 8 (TSP-1 AHR derivative) attached by covalent bond (Ac-AYRWRLSHRPKTGFIRVVMYEG; also: four copies on branched polylysine core)” the value was “suppressed tumor growth”.
Same read-out and setting: the entry for “Tip-12.40: four-branch pennant polylysine trimer; four peptides of SEQ ID NO.: 7 (endostatin AHR derivative) attached by covalent bond (Ac-TFRAFLSSRLQDLYSIVRRADG; also: four copies on branched polylysine core)” is “suppressed tumor growth”.
